Source: ChEMBL document CHEMBL1151779, “Exploration of a fundamental substituent effect of alpha-ketoheterocycle enzyme inhibitors: Potent and selective inhibitors of fatty acid amide hydrolase” (Bioorg Med Chem Lett, 2008)

What was measured:
[1] = Selectivity ratio of IC50 for KIAA1363 to IC50 for rat FAAH
[2] = target: T1, Fatty-acid amide hydrolase 1 (Rattus norvegicus, UniProt P97612); assay: Inhibition of rat FAAH
T1 sequence (P97612 whole entry): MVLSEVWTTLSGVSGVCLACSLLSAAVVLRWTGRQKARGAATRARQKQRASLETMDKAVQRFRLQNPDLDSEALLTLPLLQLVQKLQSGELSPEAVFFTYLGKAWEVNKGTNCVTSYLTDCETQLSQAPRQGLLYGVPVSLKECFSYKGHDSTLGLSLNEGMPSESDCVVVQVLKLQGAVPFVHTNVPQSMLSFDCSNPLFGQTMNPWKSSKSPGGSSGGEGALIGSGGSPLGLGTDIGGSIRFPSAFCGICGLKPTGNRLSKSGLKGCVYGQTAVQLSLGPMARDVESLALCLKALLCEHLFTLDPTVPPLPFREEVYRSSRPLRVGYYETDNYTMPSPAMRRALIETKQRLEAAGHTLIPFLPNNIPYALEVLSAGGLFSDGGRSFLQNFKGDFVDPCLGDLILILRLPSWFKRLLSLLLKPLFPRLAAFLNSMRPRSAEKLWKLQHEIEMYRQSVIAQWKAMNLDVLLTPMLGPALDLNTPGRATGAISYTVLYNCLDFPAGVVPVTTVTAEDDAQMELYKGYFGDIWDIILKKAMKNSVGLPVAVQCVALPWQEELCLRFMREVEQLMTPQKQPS

[3] = Selectivity ratio of IC50 for TGH to IC50 for rat FAAH
Liver carboxylesterase 1 = target: T2, Liver carboxylesterase 1 (Homo sapiens, UniProt P23141); assay: Inhibition of TGH
T2 sequence (P23141 whole entry): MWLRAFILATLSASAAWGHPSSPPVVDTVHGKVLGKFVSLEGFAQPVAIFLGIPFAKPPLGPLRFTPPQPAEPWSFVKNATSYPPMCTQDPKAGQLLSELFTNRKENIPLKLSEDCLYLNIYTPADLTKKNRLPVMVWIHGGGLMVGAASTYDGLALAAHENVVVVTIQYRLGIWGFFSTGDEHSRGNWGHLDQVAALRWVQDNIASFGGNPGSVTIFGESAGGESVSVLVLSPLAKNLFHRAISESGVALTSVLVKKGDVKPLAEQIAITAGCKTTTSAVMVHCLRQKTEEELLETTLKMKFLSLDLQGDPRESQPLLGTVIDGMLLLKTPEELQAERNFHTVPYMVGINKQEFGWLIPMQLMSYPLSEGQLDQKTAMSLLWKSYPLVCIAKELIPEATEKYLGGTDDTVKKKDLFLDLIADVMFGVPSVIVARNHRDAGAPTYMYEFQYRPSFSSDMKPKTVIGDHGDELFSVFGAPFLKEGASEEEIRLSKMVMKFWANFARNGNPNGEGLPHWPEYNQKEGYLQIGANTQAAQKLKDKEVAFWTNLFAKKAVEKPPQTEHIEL

[4] = target: T3, Neutral cholesterol ester hydrolase 1 (Homo sapiens, UniProt Q6PIU2); assay: Inhibition of KIAA1363
T3 sequence (Q6PIU2 whole entry): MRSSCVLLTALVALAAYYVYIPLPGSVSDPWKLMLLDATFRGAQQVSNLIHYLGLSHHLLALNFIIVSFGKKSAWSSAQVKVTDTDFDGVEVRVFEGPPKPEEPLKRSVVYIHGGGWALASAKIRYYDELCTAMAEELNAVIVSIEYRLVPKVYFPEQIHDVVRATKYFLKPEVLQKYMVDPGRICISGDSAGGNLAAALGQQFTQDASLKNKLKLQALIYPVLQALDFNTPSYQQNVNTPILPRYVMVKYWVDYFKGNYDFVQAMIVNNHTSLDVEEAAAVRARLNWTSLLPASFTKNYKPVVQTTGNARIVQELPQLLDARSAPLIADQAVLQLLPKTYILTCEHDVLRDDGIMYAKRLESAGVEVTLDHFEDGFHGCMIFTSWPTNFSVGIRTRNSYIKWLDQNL

O=C(O)c1cnc(C(=O)CCCCCCc2ccccc2)o1
Ratio IC50 [1]: > 100 | IC50 [2]: 900 nM | Ratio IC50 [3]: > 100

O=C(O)c1coc(C(=O)CCCCCCc2ccccc2)n1
Ratio IC50 [1]: > 3000 | IC50 [2]: 500 nM | Ratio IC50 [3]: 5 | IC50 (Liver carboxylesterase 1): 2500 nM | IC50 [4]: > 100000 nM

O=C(CCCCCCc1ccccc1)c1ncc(C(F)(F)F)o1
Ratio IC50 [1]: > 1400 | IC50 [2]: 70 nM | Ratio IC50 [3]: 3

O=C(CCCCCCc1ccccc1)c1nc(-c2ccncc2)co1
Ratio IC50 [1]: 1500 | IC50 [2]: 140 nM | Ratio IC50 [3]: 5 | IC50 (Liver carboxylesterase 1): 700 nM | IC50 [4]: > 100000 nM

O=C(CCCCCCc1ccccc1)c1nc(C(F)(F)F)co1
Ratio IC50 [1]: > 200 | IC50 [2]: 400 nM | IC50 (Liver carboxylesterase 1): 60 nM | IC50 [4]: 10000 nM

O=C(CCCCCCc1ccccc1)c1nc(-c2ccccn2)co1
Ratio IC50 [1]: 25 | IC50 [2]: 30 nM | Ratio IC50 [3]: 330 | IC50 (Liver carboxylesterase 1): 10000 nM | IC50 [4]: > 100000 nM

N#Cc1coc(C(=O)CCCCCCc2ccccc2)n1
Ratio IC50 [1]: > 700 | IC50 [2]: 20 nM | Ratio IC50 [3]: 1.5 | IC50 (Liver carboxylesterase 1): 30 nM | IC50 [4]: 30000 nM
